# Assay results taken from ChEMBL document CHEMBL1133156, “Macrocarpins A-D, new cytotoxic nor-triterpenes from Maytenus macrocarpa” (Bioorg Med Chem Lett, 2000).
# Where “and” joins values, the source holds several entries; their conditions need not be identical. Equal values may be shown once.
# Key:
# [1] = test system: P388; assay: Compound was tested for cytotoxic activity against P-388D1 mouse lymphoma (ATCC:CCL-46); type: functional, cell-based
# [2] = test system: HT-29; assay: (§1) Compound was tested for cytotoxic activity against […] human colon carcinoma (ATCC:HTB-38); type: functional, cell-based
# [3] = species: Homo sapiens; assay: as §1; type: functional
# [4] = test system: A549; assay: Compound was tested for cytotoxic activity against A-549 human lung carcinoma (ATCC:CCL-185); type: functional, cell-based
# [5] = test system: SK-MEL-28; assay: Compound was tested for cytotoxic activity against SK-MEL-28 human melanoma (ATCC:HTB-72); type: functional, cell-based
# [6] = test system: P388; assay: Compound was tested for cytotoxic activity against P-388D1 mouse lymphoma (ATCC: CCL-46); type: functional, cell-based
Structure (SMILES),IC50 [1] [µg/mL],IC50 [2],IC50 [3] [nM],IC50 [4],IC50 [5],IC50 [6] [nM]
COC(=O)[C@]1(C)CC[C@]2(C)CC[C@]3(C)C4CC(=O)c5c(cc(O)c(O)c5C=O)[C@]4(C)CC[C@@]3(C)C2C1 (stereo partly specified),0.5,1 µg/mL,2000,0.5 µg/mL and 1 µM,0.5 µg/mL and 1 µM,1000
COC(=O)[C@]1(C)CC[C@]2(C)CC[C@]3(C)C4CC(=O)c5c(cc(OC(C)=O)c(OC(C)=O)c5C=O)[C@]4(C)CC[C@@]3(C)C2C1 (stereo partly specified),0.25,0.25 µg/mL and 400 nM,,0.25 µg/mL and 400 nM,0.25 µg/mL and 400 nM,400
"C[C@@H]1CC2[C@]3(C)CCC4(C)C(=CC(=O)c5c4cc(O)c(O)c5C(=O)O)[C@@]3(C)CC[C@@]2(C)[C@H](O)C1=O (single isomer, unassigned)",2.5,2.5 µg/mL and 5.2 µM,,2.5 µg/mL and 5.2 µM,2.5 µg/mL and 5.2 µM,5200
"COc1c(O)cc2c(c1C(=O)O)C(=O)C=C1C2(C)CC[C@@]2(C)C3C[C@@H](C)C(=O)[C@@H](O)[C@]3(C)CC[C@]12C (single isomer, unassigned)",10,10 µg/mL and 20.7 µM,,10 µg/mL and 20.7 µM,10 µg/mL and 20.7 µM,20700
"CC1=C(O)C(=O)C=C2C1=CC(O)[C@H]1[C@@]2(C)CC[C@@]2(C)C3C[C@@H](C)C(=O)[C@@H](O)[C@]3(C)CC[C@]12C (single isomer, unassigned)",0.5,1 µg/mL and 2 µM,,1 µg/mL and 2 µM,1 µg/mL and 2 µM,1000
